Here are results for two compounds from patent publication US12122752B1, “5-(2,4,5-tris(4-chlorophenyl)-1H-imidazol-1-yl)pentanoic acid as an antimicrobial compound” (KING FAISAL UNIVERSITY, priority 2023, dated 2024).

What all share (format): cell-based
The subject of test [1] is Chrysosporium keratinophilum. Description: Agar plate disc-diffusion, antifungal activity by inhibition zone. Particulars: Sabouraud's dextrose agar, 72 hours. On the procedure: (§1) The agar plate disc-diffusion method was applied. Sterilized filter papers (6 mm in diameter) were wetted with 10 μL of a solution of 5-(2,4,5-tris(4-chlorophenyl)-1H-imidazol-1-yl)pentanoic acid (V) to be tested, containing 10 mg/mL in DMSO, and the discs were allowed to air dry. The discs were then placed onto the surface of agar plates (nutrient agar for bacteria and Sabouraud's dextrose agar for fungi) seeded with the test organism. Each plate contained 15 mL of the agar medium, previously seeded with 0.2 mL of the broth culture of each organism pregrown for 18 hours. The plates were incubated at 37° C. for 48 hours, and 72 hours for fungi. The inhibition zones was measured in mm. Discs impregnated with DMSO were used as a control, and its inhibition zone was subtracted from the tested compound actual inhibition zone.
(§2) Their antibacterial screened against gram positive bacteria namely Bacillus cereus and Staphylococcus aureus and gram-negative bacterial strains namely Pseudomonas aeruginosa and Escherichia coli, while their antifungal activity screened against Aspergillus flavus and Chrysosporium keratinophilum as shown in Table 1 and 2.
In general terms: Agar diffusion results depend on both activity and mobility in agar.

Test [2] has as its system Aspergillus flavus. Described as above. The note with it: Sabouraud's dextrose agar, 72 hours. On the procedure: as §1, §2
The test system of test [3] is Staphylococcus aureus. Put plainly: Agar plate disc-diffusion, antibacterial activity by inhibition zone. Particulars: gram positive, nutrient agar, 37° C., 48 hours. Here is the method:
as §1, with “Sterilized filter papers (6 mm in diameter) were wetted with 10 μL of a solution of 5-(2,4,5-tris(4-chlorophenyl)-1H-imidazol-1-yl)pentanoic acid (V) to be tested, containing 10 mg/mL in DMSO, and the discs were allowed to air dry.” left out
as §2

For test [4], the system named is Escherichia coli. The description is as above. The note with it: gram negative, nutrient agar, 37° C., 48 hours. On the procedure: as §1, with “Sterilized filter papers (6 mm in diameter) were wetted with 10 μL of a solution of 5-(2,4,5-tris(4-chlorophenyl)-1H-imidazol-1-yl)pentanoic acid (V) to be tested, containing 10 mg/mL in DMSO, and the discs were allowed to air dry.” left out
as §2

In test [5] the test system is Bacillus Cereus. The test is described as above. Particulars: gram positive, nutrient agar, 37° C., 48 hours. On the procedure:
as §1, with “Sterilized filter papers (6 mm in diameter) were wetted with 10 μL of a solution of 5-(2,4,5-tris(4-chlorophenyl)-1H-imidazol-1-yl)pentanoic acid (V) to be tested, containing 10 mg/mL in DMSO, and the discs were allowed to air dry.” left out
as §2

Test [6] concerns Pseudomonas aeruginosa. Described as above. The note with it: gram negative, nutrient agar, 37° C., 48 hours. On the procedure:
as §1, with “Sterilized filter papers (6 mm in diameter) were wetted with 10 μL of a solution of 5-(2,4,5-tris(4-chlorophenyl)-1H-imidazol-1-yl)pentanoic acid (V) to be tested, containing 10 mg/mL in DMSO, and the discs were allowed to air dry.” left out
as §2

For test [7], the system named is different microbes. Put plainly: Antimicrobial testing, overall statement. Particulars: summary in words of Tables 1 and 2. On the procedure: as §1, §2
[8] abbreviates: A = concentration of comp. = 10,000 μL.
The mark [9] stands for this setting: B = concentration of comp. = 30,000 μL.
Setting [10] is: C = concentration of comp. = 50,000 μL.

With `O=C(O)c1cn(C2CC2)c2cc(N3CCNCC3)c(F)cc2c1=O` [Cip., reference compound], the inhibition zone worked out at 29 mm in test [1] (setting [8]); 30 mm in test [1] (setting [9]); 53 mm in test [1] (setting [10]); 29 mm in test [2] (setting [8]); 32 mm in test [2] (setting [9]); 42 mm in test [2] (setting [10]). Further, the inhibition zone in test [3] (setting [8]) turned out to be 42 mm; in test [3] (setting [9]) it was 44 mm; in test [3] (setting [10]), 53 mm; in test [4] (setting [8]), 30 mm; in test [4] (setting [9]), 39 mm; in test [4] (setting [10]), 60 mm. Moreover, the inhibition zone is 29 mm in test [5] (setting [8]); 31 mm in test [5] (setting [9]); 42 mm in test [5] (setting [10]); 29 mm in test [6] (setting [8]); 30 mm in test [6] (setting [9]); 53 mm in test [6] (setting [10]).

Turning to `O=C(O)CCCCn1c(-c2ccc(Cl)cc2)nc(-c2ccc(Cl)cc2)c1-c1ccc(Cl)cc1` [V, 5-(2,4,5-tris(4-chlorophenyl)-1H-imidazol-1-yl)pentanoic acid], the “antimicrobials activities against different microbes” value in test [7] is on record as “excellent”. Moreover, the inhibition zone in test [1] (setting [8]) was 25 mm; in test [1] (setting [9]) it was 28 mm; in test [1] (setting [10]) it was 46 mm; in test [2] (setting [8]), 17 mm; in test [2] (setting [9]), 22 mm; in test [2] (setting [10]) it was 31 mm. Also, the inhibition zone is recorded as 18 mm in test [3] (setting [8]); 22 mm in test [3] (setting [9]); 33 mm in test [3] (setting [10]); 27 mm in test [4] (setting [8]); 35 mm in test [4] (setting [9]); 50 mm in test [4] (setting [10]). Also, the inhibition zone in test [5] (setting [8]) came out at 23 mm; in test [5] (setting [9]) it was 25 mm; in test [5] (setting [10]), 37 mm; in test [6] (setting [8]), 25 mm; in test [6] (setting [9]), 30 mm; in test [6] (setting [10]), 43 mm.
